Tested on: rice
Test: Low temperature assay on rice seedlings
Assay type: in vivo
Summary of the method: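 Nine-day-old etiolated rice seedlings (grown on water at 30 °C±2 °C, dark) immersed in brassinolide analogues at 1–0.0001 mg/L or pure water, held at 1–5 °C for 24 hr. Plant height, leaf area, root weight read at 3, 6, 9, 12 days; leaf and tiller number at 12 days.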

## CC(C)[C@H](C)[C@@H](O)[C@H](O)[C@@H](C)[C@H]1CCC2C3COC(=O)C4C[C@H](O)[C@H](O)C[C@]4(C)C3CC[C@@]21C (stereo partly shown) [BR1]
0.01 mg/l, 3 °C, 9 days
  Height: 7.4 cm
  Weight of root: 2.9 g
0.01 mg/l, 3 °C, 12 days
  Area of leaf: 13.2 cm^2
  Height: 7.6 cm
  Number of leaf: 3
  Number of tiller: 2
  Weight of root: 2.9 g
0.01 mg/l, 4 °C, 3 days
  Area of leaf: 10.8 cm^2
  Height: 7.1 cm
  Weight of root: 2.5 g
0.01 mg/l, 4 °C, 6 days
  Area of leaf: 12.4 cm^2
  Height: 7.3 cm
  Weight of root: 2.6 g
0.01 mg/l, 4 °C, 9 days
  Area of leaf: 13.4 cm^2
  Height: 7.5 cm
  Weight of root: 2.9 g
0.01 mg/l, 4 °C, 12 days
  Area of leaf: 13.7 cm^2
  Height: 7.8 cm
  Number of leaf: 3
  Number of tiller: 2
  Weight of root: 3.0 g
0.01 mg/l, 5 °C, 3 days
  Area of leaf: 10.9 cm^2
  Height: 7.7 cm
  Weight of root: 2.8 g
0.01 mg/l, 5 °C, 6 days
  Area of leaf: 13.9 cm^2
  Height: 7.8 cm
  Weight of root: 3.0 g
0.01 mg/l, 5 °C, 9 days
  Area of leaf: 17.4 cm^2
  Height: 8.2 cm
  Weight of root: 3.4 g
0.01 mg/l, 5 °C, 12 days
  Area of leaf: 18 cm^2
  Height: 8.5 cm
  Number of leaf: 4
  Number of tiller: 3
  Weight of root: 3.9 g
0.1 mg/l, 1 °C, 3 days
  Area of leaf: 10.1 cm^2
  Height: 7.0 cm
  Weight of root: 2.8 g
0.1 mg/l, 1 °C, 6 days
  Area of leaf: 11.9 cm^2
  Height: 7.2 cm
  Weight of root: 3.0 g
0.1 mg/l, 1 °C, 9 days
  Area of leaf: 12.9 cm^2
  Height: 7.3 cm
  Weight of root: 3.4 g
0.1 mg/l, 1 °C, 12 days
  Area of leaf: 13.4 cm^2
  Height: 7.5 cm
  Number of leaf: 3
  Number of tiller: 3
  Weight of root: 3.6 g
0.1 mg/l, 2 °C, 3 days
  Area of leaf: 10.4 cm^2
  Height: 7.1 cm
  Weight of root: 2.9 g
0.1 mg/l, 2 °C, 6 days
  Area of leaf: 11.8 cm^2
  Height: 7.2 cm
  Weight of root: 3.0 g
0.1 mg/l, 2 °C, 9 days
  Area of leaf: 12.8 cm^2
  Height: 7.3 cm
  Weight of root: 3.1 g
0.1 mg/l, 2 °C, 12 days
  Area of leaf: 13.6 cm^2
  Height: 7.4 cm
  Number of leaf: 3
  Number of tiller: 3
  Weight of root: 3.2 g
0.1 mg/l, 3 °C, 3 days
  Area of leaf: 10.5 cm^2
  Height: 7.2 cm
  Weight of root: 2.5 g
0.1 mg/l, 3 °C, 6 days
  Area of leaf: 12 cm^2
  Height: 7.3 cm
  Weight of root: 2.6 g
0.1 mg/l, 3 °C, 9 days
  Area of leaf: 12.8 cm^2
  Height: 7.4 cm
  Weight of root: 2.9 g
0.1 mg/l, 3 °C, 12 days
  Area of leaf: 13.4 cm^2
  Height: 7.6 cm
  Number of leaf: 3
  Number of tiller: 2
  Weight of root: 2.9 g
0.1 mg/l, 4 °C, 3 days
  Area of leaf: 10.8 cm^2
  Height: 7.1 cm
  Weight of root: 2.5 g
0.1 mg/l, 4 °C, 6 days
  Area of leaf: 12.5 cm^2
  Height: 7.4 cm
  Weight of root: 2.7 g
0.1 mg/l, 4 °C, 9 days
  Area of leaf: 13.5 cm^2
  Height: 7.5 cm
  Weight of root: 2.9 g
0.1 mg/l, 4 °C, 12 days
  Area of leaf: 13.8 cm^2
  Height: 7.7 cm

Source: patent US9326506B2, “Preparation method, agricultural composition and applications of natural brassinolide analogs” (CHENGDU NEWSUN CROPSCIENCE CO., LTD, priority 2012, dated 2016)
